Laboratory results from patent US20100298141A1, “SUBSTITUTED PYRIDINE N-OXIDE HERBICIDES” (E. I. DU PONT DE NEMOURS AND COMPANY, priority 2007, published 2010).

Experiments:
[1] = tested on: morningglory; test: Test A pre-/postemergence greenhouse test; format: in vivo, Ipomoea spp.; settings: for Morningglory plant response rating: 0 to 100 scale; for Plant response rating, Morningglory: 0 to 100 scale where 0 is no effect and 100 is complete control
How it was run: (§1)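 Pre: directed soil spray on seeded loam/sand. Post: foliar spray, plants 2–10 cm, 1–2 leaf stage, applied concurrently. Vehicle: non-phytotoxic solvent + surfactant. Greenhouse ~10 d; visual injury rating vs untreated controls.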

[2] = tested on: redroot pigweed; test: Test A pre-/postemergence greenhouse test; format: in vivo, Amaranthus retroflexus; settings: for Pigweed plant response rating: 0 to 100 scale; for Plant response rating, Pigweed: 0 to 100 scale where 0 is no effect and 100 is complete control
How it was run: as §1

[3] = tested on: blackgrass; test: Test C pre-/postemergence test; format: in vivo, Alopecurus myosuroides; settings: for Plant response rating, Blackgrass: 31 g ai/ha, scale 0 to 100 (0 no effect, 100 complete control); for Plant response rating (0 to 100), Blackgrass: 250 g ai/ha
How it was run: (§2)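 Seeds were planted and treated preemergence with test chemical in a non-phytotoxic solvent mixture containing surfactant. Postemergence applications of the same formulation went onto plants 2 to 18 cm tall (1- to 4-leaf stage). A dash marks no test result.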

[4] = tested on: downy brome; test: Test C pre-/postemergence test; format: in vivo, Bromus tectorum; settings: for Plant response rating, Bromegrass, Downy: 31 g ai/ha, scale 0 to 100 (0 no effect, 100 complete control); for Plant response rating (0 to 100), Bromegrass, Downy: 250 g ai/ha
How it was run: as §2

[5] = tested on: green foxtail; test: Test C pre-/postemergence test; format: in vivo, Setaria viridis; settings: Preemergence; for Foxtail, Green plant response rating: 62 g ai/ha, scale 0 to 100; for Plant response rating, Foxtail, Green: 31 g ai/ha, scale 0 to 100 (0 no effect, 100 complete control); for Plant response rating (0 to 100), Foxtail, Green: 250 g ai/ha
How it was run: as §2

[6] = tested on: wild oat; test: Test C pre-/postemergence test; format: in vivo, Avena fatua; settings: Preemergence; for Oat, Wild plant response rating: 62 g ai/ha, scale 0 to 100; for Plant response rating, Oat, Wild: 31 g ai/ha, scale 0 to 100 (0 no effect, 100 complete control)
How it was run: as §2

[7] = tested on: catchweed bedstraw; test: Test C pre-/postemergence test; format: in vivo, Galium aparine; settings: Preemergence; for Galium plant response rating: 62 g ai/ha, scale 0 to 100; for Plant response rating, Galium: 31 g ai/ha, scale 0 to 100 (0 no effect, 100 complete control); for Plant response rating (0 to 100), Galium: 250 g ai/ha
How it was run: as §2

[8] = tested on: bermudagrass; test: Test C pre-/postemergence test; format: in vivo, Cynodon dactylon; settings: for Plant response rating, Bermudagrass: 31 g ai/ha; for Plant response rating (0 to 100), Bermudagrass: 250 g ai/ha
How it was run: as §2

[9] = tested on: cocklebur; test: Test C pre-/postemergence test; format: in vivo, Xanthium strumarium; settings: for Plant response rating, Cocklebur: 31 g ai/ha, scale 0 to 100 (0 no effect, 100 complete control)
How it was run: as §2

[10] = tested on: woolly cupgrass; test: Test C pre-/postemergence test; format: in vivo, Eriochloa villosa; settings: Preemergence; for Cupgrass, Woolly plant response rating: 62 g ai/ha, scale 0 to 100; for Plant response rating, Cupgrass, Woolly: 31 g ai/ha, scale 0 to 100 (0 no effect, 100 complete control); for Plant response rating (0 to 100), Cupgrass, Woolly: 250 g ai/ha
How it was run: as §2

[11] = tested on: kochia; test: Test C pre-/postemergence test; format: in vivo, Kochia scoparia; settings: Preemergence; for Kochia plant response rating: 62 g ai/ha, scale 0 to 100
How it was run: as §2

[12] = tested on: lambsquarters; test: Test C pre-/postemergence test; format: in vivo, Chenopodium album; settings: Preemergence; for Lambsquarters plant response rating: 62 g ai/ha, scale 0 to 100; for Plant response rating, Lambsquarters: 31 g ai/ha, scale 0 to 100 (0 no effect, 100 complete control)
How it was run: as §2

[13] = tested on: yellow nutsedge; test: Test C pre-/postemergence test; format: in vivo, Cyperus esculentus; settings: Preemergence; for Nutsedge, Yellow plant response rating: 62 g ai/ha, scale 0 to 100; for Plant response rating, Nutsedge, Yellow: 31 g ai/ha, scale 0 to 100 (0 no effect, 100 complete control)
How it was run: as §2

[14] = tested on: soybean; test: Test C pre-/postemergence test; format: in vivo, Glycine max; settings: Preemergence; for Soybean plant response rating: 62 g ai/ha, scale 0 to 100; for Plant response rating, Soybean: 31 g ai/ha, scale 0 to 100 (0 no effect, 100 complete control)
How it was run: as §2

[15] = tested on: rice; test: Test C flooded paddy test; format: in vivo, Oryza sativa; settings: Flood
How it was run: (§3)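 Visual injury ratings against untreated controls, taken 13 to 15 days after compound was added to paddy water standing 3 cm above the soil.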

[16] = tested on: duck salad; test: Test C flooded paddy test; format: in vivo, Heteranthera limosa; settings: Flood
How it was run: as §3

[17] = Postemergence, 125 g ai/ha, 0 is no effect, 100 is complete control
[18] = Postemergence, 500 g ai/ha, 0 is no effect, 100 is complete control
[19] = Preemergence, 125 g ai/ha, 0 no effect, 100 complete control
[20] = 62 g ai/ha, Preemergence, scale 0 to 100
[21] = preemergence, 125 g ai/ha, scale 0 (no effect) to 100 (complete control)
[22] = 62 g ai/ha, Preemergence, scale 0 to 100 (0 no effect, 100 complete control)
[23] = Preemergence, scale 0 to 100 (0 no effect, 100 complete control)
[24] = 31 g ai/ha, scale 0 to 100 (0 no effect, 100 complete control)
[25] = 62 g ai/ha, scale 0 to 100, 0 no effect, 100 complete control, 13 to 15 days
[26] = 125 g ai/ha, scale 0 to 100, 0 no effect, 100 complete control, 13 to 15 days
[27] = 250 g ai/ha, scale 0 to 100 (0 no effect, 100 complete control)

Cn1nc(C(F)(F)F)c(C[S+]([O-])c2cc(C(C)(C)C)cc[n+]2[O-])c1OC(F)F (racemic) [Compound 24]
Morningglory plant response rating [1, 17]: 40
Morningglory plant response rating [1, 18]: 90
Morningglory plant response rating [1, 19]: 70
Plant response rating, Morningglory ([1]; Preemergence, 500 g ai/ha): 90
Pigweed plant response rating [2, 17]: 20
Pigweed plant response rating [2, 18]: 50
Pigweed plant response rating [2, 19]: 100
Plant response rating, Pigweed ([2]; Preemergence, 500 g ai/ha): 100
Blackgrass plant response rating [3, 20]: 20
Plant response rating, Blackgrass ([3]; Preemergence): 20
Plant response rating (0 to 100), Blackgrass ([3]; Preemergence): 100
Blackgrass plant response rating [3, 21]: 50
Bromegrass, Downy plant response rating [4, 20]: 50
Plant response rating, Bromegrass, Downy ([4]; Preemergence): 10
Plant response rating (0 to 100), Bromegrass, Downy ([4]; Preemergence): 65
Bromegrass, Downy plant response rating [4, 21]: 50
Foxtail, Green plant response rating [5]: 70
Plant response rating, Foxtail, Green [5]: 10
Plant response rating (0 to 100), Foxtail, Green [5]: 100
Oat, Wild plant response rating [6]: 80
Plant response rating, Oat, Wild [6]: 50
Galium plant response rating [7]: 98
Plant response rating, Galium [7]: 0
Plant response rating (0 to 100), Galium [7]: 100
Bermudagrass plant response rating [8, 22]: 85
Plant response rating, Bermudagrass [8, 23]: 75
Plant response rating (0 to 100), Bermudagrass ([8]; Preemergence): 100
Bermudagrass plant response rating [8, 21]: 100
Cocklebur plant response rating [9, 20]: 0
Plant response rating, Cocklebur ([9]; Preemergence): 0
Cocklebur plant response rating [9, 21]: 0
Cupgrass, Woolly plant response rating [10]: 60
Plant response rating, Cupgrass, Woolly [10]: 40
Plant response rating (0 to 100), Cupgrass, Woolly [10]: 100
Kochia plant response rating [11]: 5
Plant response rating, Kochia [11, 24]: 0
Lambsquarters plant response rating [12]: 100
Plant response rating, Lambsquarters [12]: 85
Nutsedge, Yellow plant response rating [13]: 70
Plant response rating, Nutsedge, Yellow [13]: 0
Soybean plant response rating [14]: 85
Plant response rating, Soybean [14]: 0
Plant response rating, Rice [15, 24]: 0
Plant response rating, Rice [15, 25]: 30
Plant response rating, Rice [15, 26]: 45
Plant response rating, Rice [15, 27]: 80
Plant response rating, Ducksalad [16, 24]: 0
Plant response rating, Ducksalad [16, 25]: 60
Plant response rating, Ducksalad [16, 26]: 80
Plant response rating, Ducksalad [16, 27]: 85

CC(c1c(C(F)(F)F)nn(C)c1OC(F)F)S(=O)(=O)c1cc(C(C)(C)C)cc[n+]1[O-] (racemic) [Compound 26]
Morningglory plant response rating [1, 17]: 20
Morningglory plant response rating [1, 18]: 30
Morningglory plant response rating [1, 19]: 30
Plant response rating, Morningglory ([1]; Preemergence, 500 g ai/ha): 100
Pigweed plant response rating [2, 17]: 40
Pigweed plant response rating [2, 18]: 60
Pigweed plant response rating [2, 19]: 90
Plant response rating, Pigweed ([2]; Preemergence, 500 g ai/ha): 100
Blackgrass plant response rating [3, 20]: 100
Plant response rating, Blackgrass ([3]; Preemergence): 80
Plant response rating (0 to 100), Blackgrass ([3]; Preemergence): 100
Blackgrass plant response rating [3, 21]: 100
Bromegrass, Downy plant response rating [4, 20]: 45
Plant response rating, Bromegrass, Downy ([4]; Preemergence): 0
Plant response rating (0 to 100), Bromegrass, Downy ([4]; Preemergence): 60
Bromegrass, Downy plant response rating [4, 21]: 45
Foxtail, Green plant response rating [5]: 85
Plant response rating, Foxtail, Green [5]: 10
Plant response rating (0 to 100), Foxtail, Green [5]: 100
Oat, Wild plant response rating [6]: 60
Plant response rating, Oat, Wild [6]: 0
Galium plant response rating [7]: 85
Plant response rating, Galium [7]: 50
Plant response rating (0 to 100), Galium [7]: 100
Bermudagrass plant response rating [8, 22]: 100
Plant response rating, Bermudagrass [8, 23]: 80
Plant response rating (0 to 100), Bermudagrass ([8]; Preemergence): 100
Bermudagrass plant response rating [8, 21]: 100
Cocklebur plant response rating [9, 20]: 0
Plant response rating, Cocklebur ([9]; Preemergence): 0
Plant response rating (0 to 100), Cocklebur ([9]; Preemergence, 250 g ai/ha): 50
Cocklebur plant response rating [9, 21]: 0
Cupgrass, Woolly plant response rating [10]: 40
Plant response rating, Cupgrass, Woolly [10]: 40
Plant response rating (0 to 100), Cupgrass, Woolly [10]: 98
Kochia plant response rating [11]: 0
Lambsquarters plant response rating [12]: 40
Plant response rating, Lambsquarters [12]: 0
Nutsedge, Yellow plant response rating [13]: 50
Plant response rating, Nutsedge, Yellow [13]: 0
Soybean plant response rating [14]: 0
Plant response rating, Soybean [14]: 0
Plant response rating, Rice [15, 24]: 0
Plant response rating, Rice [15, 25]: 0
Plant response rating, Rice [15, 26]: 0
Plant response rating, Rice [15, 27]: 80
Plant response rating, Ducksalad [16, 24]: 40
Plant response rating, Ducksalad [16, 25]: 65
Plant response rating, Ducksalad [16, 26]: 65
Plant response rating, Ducksalad [16, 27]: 90
